Data: ChEMBL document CHEMBL1136204, “Thymidine and thymidine-5'-O-monophosphate analogues as inhibitors of Mycobacterium tuberculosis thymidylate kinase” (Bioorg Med Chem Lett, 2003)

Columns and labels:
[1] = target: T1, Thymidylate kinase (Mycobacterium tuberculosis, UniProt P9WKE1); experiment: Inhibitory activity against thymidine monophosphate kinase (TMPK) in Mycobacterium tuberculosis
T1 sequence (P9WKE1 whole entry): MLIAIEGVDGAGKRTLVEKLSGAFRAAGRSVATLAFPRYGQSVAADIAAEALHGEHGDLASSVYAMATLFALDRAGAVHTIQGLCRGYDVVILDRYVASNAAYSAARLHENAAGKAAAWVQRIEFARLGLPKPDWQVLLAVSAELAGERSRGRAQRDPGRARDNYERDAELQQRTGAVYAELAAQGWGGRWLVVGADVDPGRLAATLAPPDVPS

[2] = target: T1, Thymidylate kinase; experiment: Inhibitory activity against thymidine monophosphate kinase (TMPKmt) in Mycobacterium tuberculosis using HPLC chromatography test

Structure (SMILES)	Ki [1] [µM]	Ki [2] [µM]
Cc1cn([C@@H]2O[C@H](CI)[C@@H](N=[N+]=[N-])[C@H]2O)c(=O)[nH]c1=O	490	–
Cc1cn([C@@H]2O[C@H](CO)[C@@H](O)[C@H]2F)c(=O)[nH]c1=O	122	–
O=c1[nH]c(=O)n([C@H]2C[C@H](O)[C@@H](CO)O2)cc1C(F)(F)F [TRIFLURIDINE]	97	–
Cc1cn([C@@H]2CO[C@H](COP(=O)(O)O)[C@@H](O)C2)c(=O)[nH]c1=O	150	–
Cc1cn([C@H]2C[C@H](O)[C@@H](CN)O2)c(=O)[nH]c1=O	12	–
CCc1cn([C@H]2C[C@H](O)[C@@H](CO)O2)c(=O)[nH]c1=O [EDOXUDINE]	1140	–
O=c1[nH]c(=O)n([C@H]2C[C@H](O)[C@@H](COP(=O)(O)O)O2)cc1CO	110	–
Cc1cn([C@H]2C[C@H](O)[C@@H](CO)O2)c(=O)[nH]c1=O [DOXRIBTIMINE]	715	–
O=c1[nH]c(=O)n([C@H]2C[C@H](O)[C@@H](COP(=O)(O)O)O2)cc1Cc1ccccc1	28	–
O=c1[nH]c(=O)n([C@H]2C[C@H](O)[C@@H](COP(=O)(O)O)O2)cc1-c1ccco1	140	–
CC(=O)NC[C@H]1O[C@@H](n2cc(C)c(=O)[nH]c2=O)C[C@@H]1O	90	–
Cc1cn([C@@H]2O[C@H](C)[C@@H](N)[C@H]2O)c(=O)[nH]c1=O	1900	–
O=c1[nH]c(=O)n([C@H]2C[C@H](O)[C@@H](COP(=O)(O)O)O2)cc1-c1cccs1	270	–
Cc1cn([C@@H]2O[C@H](CO)[C@@H](N=C(N)N)[C@H]2O)c(=O)[nH]c1=O	140	–
C[C@H]1O[C@@H](n2cc(F)c(=O)[nH]c2=O)[C@H](O)[C@@H]1O [DOXIFLURIDINE]	560	–
Cc1cn([C@@H]2O[C@H](CO)[C@@H](O)[C@@H]2O)c(=O)[nH]c1=O	238	–
O=c1[nH]c(=O)n([C@@H]2O[C@H](CO)[C@@H](O)[C@H]2O)cc1F [5-FLUOROURIDINE]	521	–
Cc1cn([C@H]2C[C@H](F)[C@@H](CO)O2)c(=O)[nH]c1=O [ALOVUDINE]	28	–
Cc1cn([C@H]2C[C@H](O)[C@@H](CN=[N+]=[N-])O2)c(=O)[nH]c1=O	7	–
C[C@@H]1CC[C@H](n2cc(Br)c(=O)[nH]c2=O)O1	5	–
Cc1cn([C@H]2C[C@H](O)[C@@H](COP(=O)(O)OP(=O)(O)OP(=O)(O)OP(=O)(O)OP(=O)(O)OC[C@H]3O[C@@H](n4cnc5c(N)ncnc54)[C@H](O)[C@@H]3O)O2)c(=O)[nH]c1=O	–	30
Cc1cn([C@H]2C[C@H](N)[C@@H](CO)O2)c(=O)[nH]c1=O [3-AMINO- 3-DEOXYTHYMIDINE]	230	–
Cc1cn([C@@H]2O[C@H](COP(=O)(O)O)[C@@H](O)[C@H]2N)c(=O)[nH]c1=O	120	–
Cc1cn([C@@H]2O[C@H](COP(=O)(O)O)[C@@H](N)[C@H]2O)c(=O)[nH]c1=O	45	–
